# Experimental data: patent publication US20230286973A1, “PROTEIN SECRETION INHIBITORS” (KEZAR LIFE SCIENCES, priority 2020, published 2023)
# What was measured:
# [1] = Liver Microsome Stability Assay (monkey); conditions: monkey liver microsomes, with NADPH, 1.0 uM compound
# Description: (§1) Stability of a compound was assessed in the presence of liver microsomes from various sources—mouse, rat, monkey and human liver microsomes. 1.0 uM compound, 0.4% DMSO in 0.1 M Potassium Phosphate with 1.0 mg/mL liver microsomes, were incubated at 37° C. with or without 1 mM NADPH. The samples were quenched at 0, and 30 minutes.
# [2] = Liver Microsome Stability Assay (mouse); conditions: mouse liver microsomes, with NADPH, 1.0 uM compound
# Description: as §1
# [3] = test system: multiple myeloma cell line U266B1; test: U266 Cell Viability Assay; assay type: cell-based, human; conditions: Homo sapiens, U-266, 48 h, U266B1 cells, Celltiter-Glo
# Outline: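 U266B1 multiple myeloma cells in RPMI 1640/10% FBS were treated with compound dilutions for 48 h at 37 °C, 5% CO2. Viability was measured by CellTiter-Glo luminescence; compounds drawn without stereochemistry were tested as stereoisomer mixtures.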
# [4] = test system: PD1-ss+10aa/Gaussia Luciferase; test: Dox-Induced PD1-ss-Gluc Assay; assay type: cell-based; conditions: 24 hr Dox induction; 293FRT/TO cells; mean; read-out: 24 hr Dox Inducible PD1ssGluc 293FRT/TO: Mean IC50
# Outline: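 Stable Flp-In 293 T-REx cells carried a doxycycline-inducible construct of Gaussia luciferase fused to the PD1 signal sequence plus 10 amino acids. Cells were plated the day before, then treated with compound dilutions in DMSO/media containing doxycycline at 37 °C, 5% CO2.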
# [5] = test system: TNFα-FL/Gaussia Luciferase; test: Dox Induced TNFα-FL-Gluc Assay; assay type: cell-based; conditions: for IC50: 24 hr Dox induction, 293FRT/TO cells, mean, read-out: 24 hr Dox Inducible TNFaFLGluc 293FRT/TO: Mean IC50; for 24 hr Dox Inducible TNFaFLGluc 293FRT/TO: TNF/PD1: ratio of TNFaFLGluc IC50 to PD1ssGluc IC50, '<=>' given where both are I.A.
# Outline: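 Flp-In 293 T-REx cells stably carrying doxycycline-inducible full-length TNFα (aa 1-233) fused to Gaussia luciferase. Plated the day before, then treated with compound dilutions in doxycycline-containing medium at 37° C, 5% CO2.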
# [6] = test system: multiple myeloma cell line NCI-H929; test: H929 Cell Viability Assay; assay type: cell-based, human; conditions: Homo sapiens, NCI-H929, 48 h, NCI-H929 cells, Celltiter-Glo
# Outline: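 NCI-H929 cells in RPMI 1640 with 10% FBS were treated with compound dilutions for 48 h at 37° C, 5% CO2. Viability was read by CellTiter-Glo luminescence. Undefined stereocentres denote stereoisomer mixtures.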
# [7] = Liver Microsome Stability Assay (rat); conditions: rat liver microsomes, with NADPH, 1.0 uM compound
# Description: as §1
# [8] = test system: IL-2-FL/Gaussia Luciferase; test: Dox Induced IL2-FL-Gluc Assay; assay type: cell-based; conditions: for IC50: 24 hr Dox induction, 293FRT/TO cells, mean, read-out: 24 hr Dox Inducible IL2FLGluc 293FRT/TO: Mean IC50; for 24 hr Dox Inducible IL2FLGluc 293FRT/TO: IL2/PD1: ratio of IL2FLGluc IC50 to PD1ssGluc IC50, '<=>' given where both are I.A.
# Outline: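 Stable Flp-In 293 T-REx cells carrying doxycycline-inducible full-length IL-2 (aa 1-153) fused to Gaussia luciferase, plated the day before assay. Compound dilutions added in medium containing doxycycline, incubated at 37 °C, 5% CO2. Undefined stereocentres mean data refer to stereoisomer mixtures.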
# [9] = test system: HER3-ss+4aa/Gaussia Luciferase; test: Dox-Induced Her3-ss-Gluc Assay; assay type: cell-based; conditions: 24 hr Dox induction; 293FRT/TO cells; mean; read-out: 24 hr Dox Inducible Her3(ss + 4)Gluc 293FRT/TO: Mean IC50
# Outline: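 Stable Flp-In 293 T-REx cells carried a doxycycline-inducible HER3 signal sequence (+4 aa) fused to Gaussia luciferase. Cells were plated the day before the assay. Compound dilutions in DMSO/media containing doxycycline were then added, and plates were incubated at 37 °C, 5% CO2.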
# [10] = Liver Microsome Stability Assay (human); conditions: human liver microsomes, with NADPH, 1.0 uM compound
# Description: as §1
SMILES,Liver Microsome Stability (Multiple Species): Monkey - % Remaining after 30 min w/NADPH [1] [%],Liver Microsome Stability (Multiple Species): Mouse - % Remaining after 30 min w/NADPH [2] [%],EC50 [3] [µM],IC50 [4] [µM],IC50 [5] [µM],24 hr Dox Inducible TNFaFLGluc 293FRT/TO: TNF/PD1 [5],EC50 [6] [µM],Liver Microsome Stability (Multiple Species): Rat - % Remaining after 30 min w/NADPH [7] [%],IC50 [8] [µM],24 hr Dox Inducible IL2FLGluc 293FRT/TO: IL2/PD1 [8],IC50 [9] [µM],Liver Microsome Stability (Multiple Species): Human - % Remaining after 30 min w/NADPH [10] [%]
"N#CCC1(Cn2cccc2C(=O)Nc2nc([C@H]3CCCN3c3ccccc3)cs2)CCC1 [Compound C9, (R)-1-((1-(cyanomethyl)cyclobutyl)methyl)-N-(4-(1-phenylpyrrolidin-2-yl)thiazol-2-yl)-1H-pyrrole-2-carboxamide]",0.38,0.81,> 25,4.56,> 25,>5.49,> 25,8.24,7.54,1.7,6.1,3.68
O=C(Nc1nc([C@H]2CCCN2c2ccccc2)cs1)c1cccn1Cc1ccc(=O)[nH]c1 [Compound C10],9.66,29.5,> 25,5.21,> 25,>4.80,24.3,38.8,7.09,1.4,13.9,22.6
O=C(O)CCCCn1cccc1C(=O)Nc1nc([C@H]2CCCN2c2ccccc2)cs1 [Compound C11],76.1,52.3,> 25,> 25,> 25,–,> 25,83.1,> 25,1,> 25,65.2
O=C(O)CCn1cccc1C(=O)Nc1nc([C@H]2CCCN2c2ccccc2)cs1 [Compound C12],90.9,60.4,> 25,> 25,> 25,–,> 25,76.3,> 25,1,> 25,75.1
O=C(O)CCCn1cccc1C(=O)Nc1nc([C@H]2CCCN2c2ccccc2)cs1 [Compound C13],81.3,64.9,> 25,> 25,> 25,–,> 25,87.9,> 25,1,> 25,82.1
"O=C(Nc1nc([C@H]2CCCN2c2ccccc2)cs1)c1cccn1CCCc1nnn[nH]1 [Compound C14, (R)-1-(3-(1H-tetrazol-5-yl)propyl)-N-(4-(1-phenylpyrrolidin-2-yl)thiazol-2-yl)-1H-pyrrole-2-carboxamide]",90.3,57.8,> 25,> 25,> 25,–,> 25,78.7,> 25,1,> 25,74.3
NC(=O)CCn1cccc1C(=O)Nc1nc([C@H]2CCCN2c2ccccc2)cs1 [Compound C15],22.4,31.7,> 25,> 25,> 25,–,> 25,18.3,> 25,1,> 25,29.3
"O=C(Nc1nc([C@H]2CCCN2c2ccccc2)cs1)c1cccn1CCc1nnn[nH]1 [Compound C16, (R)-1-(2-(1H-tetrazol-5-yl)ethyl)-N-(4-(1-phenylpyrrolidin-2-yl)thiazol-2-yl)-1H-pyrrole-2-carboxamide]",78.9,26.7,> 25,8.08,> 25,>3.09,> 25,3.26,6.9,0.85,8.93,8.13
"Cn1cccc1C(=O)Nc1nc([C@H]2CCCN2c2ccccc2)cs1 [Compound C17, (R)-1-methyl-N-(4-(1-phenylpyrrolidin-2-yl)thiazol-2-yl)-1H-pyrrole-2-carboxamide]",30.9,9.27,> 25,22.3,> 25,>1.12,> 25,10.3,6.75,0.3,> 25,58.7
